According to patent US5804554A, “Calcium channel blocking polypeptides from filistata hibernalis” (priority 1995, dated 1998):

Tested on: calcium channels
Details: read-out: IC50 values for blocking calcium channels; rat cerebellar granule cells, fura2 fluorescence, 37° C.

`COc1ccc(CCN(C)CCCC(C#N)(c2ccc(OC)c(OC)c2)C(C)C)cc1OC` (stereo not shown) [Verapamil] showed an IC50 of 4.8 µM.
